{"source": "paper PMC5382891", "about": "(Scientific Reports, 2017)", "key": {"[1]": {"target": "T1, human recombinant NOP receptor (Homo sapiens, UniProt P41146)", "T1 construct": "expressed in transfected cells", "T1 sequence (P41146 whole entry)": "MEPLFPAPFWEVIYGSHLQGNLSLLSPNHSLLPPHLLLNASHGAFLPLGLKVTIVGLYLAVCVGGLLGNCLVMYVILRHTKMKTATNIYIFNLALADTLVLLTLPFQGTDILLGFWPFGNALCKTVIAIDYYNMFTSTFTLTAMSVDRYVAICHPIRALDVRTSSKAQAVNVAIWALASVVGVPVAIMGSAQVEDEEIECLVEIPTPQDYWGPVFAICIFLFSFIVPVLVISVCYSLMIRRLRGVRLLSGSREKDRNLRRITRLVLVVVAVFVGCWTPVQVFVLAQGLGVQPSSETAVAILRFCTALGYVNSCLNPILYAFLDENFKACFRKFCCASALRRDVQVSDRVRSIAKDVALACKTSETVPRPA", "test": "cell-based", "format": "cell-based"}, "mouse vas deferens": {"test_system": "mouse vas deferens", "test": "electrically stimulated mouse vas deferens bioassay", "details": "Table 2; for mVD Emax ± SEM: percent of the control twitch, mean ± SEM of at least 4 separate experiments, footnote a: concentration response curve incomplete due to low potency", "description": "The experiments were performed on the mouse vas deferens (mVD). The tissues were taken from male CD-1 mice 16–18 g (Harlan, Ud, Italy). Mice were housed in 425 × 266 × 155 mm cages (Techniplast, Mi, Italy), 8 per cage, all under standard conditions (22 °C, 55% humidity, 12 h light/dark cycle, light on at 7:00 h), with food for mice (4RF, Mucedola, Mi, Italy) and water ad libitum. A mouse red house (Tecniplast, Va, Italy) and nesting materials were present in each cage for mice. The day of the experiment the animals were sacrificed with CO2 overdose. The experimental protocol was approved by the Ethical Committee for the Use of Laboratory Animals of the University of Ferrara and by the Italian Ministry of Health (authorization number 9927, 19/04/2013). The animals were treated in accordance with the European Communities Council directives (2010/63/EU) and national regulations (D.L. 26/2014). Bioassay experiments were performed as previously described. The tissues were suspended in 5 ml organ bath containing Krebs solution (composition in mM: NaCl 118.5, KCl 4.7, KH2PO4 1.2, NaHCO3 25, CaCl2 2.5, glucose 10). The Krebs solution was oxygenated with 95% O2 and 5% CO2. The temperature was set at 33 °C. At resting tension 0.3 g was applied to the mVD. […] The electrically evoked contractions were measured isotonically by means of Basile strain gauge transducers (Basile 7006; srl Ugo Basile, Varese, Italy) and recorder with a computer – based acquisition system (Power Lab 8, ADInstruments, Colorado Springs, USA). […]\nThe pharmacological terminology adopted in this paper is consistent with IUPHAR recommendations. All data are expressed as the mean ± standard error of the mean (SEM) of n experiments. […] In calcium mobilization experiments, maximum change in fluorescence, expressed as percent over the baseline fluorescence, was used to determine agonist response. Electrically stimulated tissues data are expressed as % of the control twitch induced by electrical field stimulation. […]"}}, "note": "Read-outs that look alike come from different tables or passages of the source. Ends that are not written are not given here."}
{"substance": "N/OFQ(1-11)-NH2 (FGGFTGARKSA-NH2; UniProt Q13519 130-140, looked up, fragment) [compound 12]", "values": [{"measurement": "Ca2+ mobilization Emax ± SEM", "setting": "[1]; SEM", "value": "182 ± 34", "unit": "%"}, {"measurement": "mVD Emax ± SEM", "setting": "mouse vas deferens; SEM", "value": "65 ± 5", "unit": "%^a"}]}
{"substance": "compound 15: heterodimeric derivative N/OFQ(1-12)-N/OFQ(2-12), 2,2′-disulfanediyldiethanamine spacer (chain 1 FGGFTGARKSAR; chain 2 GGFTGARKSAR)", "values": [{"measurement": "Ca2+ mobilization pEC50 (CL95%)", "setting": "[1]", "value": "9.49 (9.07–9.91)"}]}
{"substance": "N/OFQ(2-12)-NH2 [compound 14]", "values": [{"measurement": "Ca2+ mobilization Emax ± SEM", "setting": "[1]", "value": "Inactive"}, {"measurement": "Ca2+ mobilization pEC50 (CL95%)", "setting": "[1]", "value": "Inactive"}, {"measurement": "mVD pEC50 (CL95%)", "setting": "mouse vas deferens; electrically stimulated mouse vas deferens, Krebs solution, 33 °C, cumulative concentration response curves, mean of at least 4 separate experiments, CL95% in brackets, * P < 0.05 versus N/OFQ(1-13)-NH2", "value": "inactive"}, {"measurement": "mVD Emax ± SEM", "setting": "mouse vas deferens", "value": "inactive"}]}
{"substance": "FGGFTGARKSAR-NH2 [compound 10, N/OFQ(1-12)-NH2] [listing 1 of 2 here]", "values": [{"measurement": "Emax", "setting": "[1]; CHO, read-out: Ca2+ mobilization Emax ± SEM, SEM", "value": "204 ± 16", "unit": "%"}]}
{"substance": "FGGFTGARKSAR-NH2 [compound 10, N/OFQ(1-12)-NH2] [listing 2 of 2 here]", "values": [{"measurement": "EC50", "setting": "[1]; Ca2+ mobilization pEC50 (CL95%)", "value": 200, "unit": "pM"}]}
